Source: patent publication US20250221922A1, “ORAL CARE COMPOSITIONS CONTAINING RHAMNOLIPIDS” (Stepan Company, priority 2022, published 2025)

Experiment: Flavor Solubilization (mint flavor oils)
Type: physicochemical
Details: premix at the solubilization ratio
Experimental: The ability of the rhamnolipid mixture to solubilize an oil-based flavorant, such as a mint oil flavorant, was tested. The rhamnolipid composition tested was Sample 3 used above for Porphyromonas gingivalis.
Functionality was determined through a series of dilutions using the rhamnolipid mixture as a potential solubilizer component for flavor oils in the absence of synthetic or other solubilizers. The rhamnolipid composition was compared with polysorbate 20, which is a synthetic solubilizer and the industry standard for oil solubilization for flavors. Common mint flavors, such as Mint #244456 and Mint #244455 from Belle Aire Creations, were used as the flavor oils.
The rhamnolipid composition was added to each of the flavor oils in increasing amounts in order to determine the solubilizer component to flavor oil ratio at which a clear premix was obtained. Once a clear premix was obtained, that premix was then added to deionized water to ensure that the final solution was crystal clear.

Substance: polysorbate 20
- appearance of final solution of the premix in deionized water: crystal clear
